We go through six compounds from patent US9029325B2, “Amylin analogues and pharmaceutical compositions thereof” (Novo Nordisk A/S, priority 2011, dated 2015).

Starred links: 1 amine or outer side, 2 acyl side, 3 side chain; linkers in the order of their positions; H or OH if unused. Positions of bridges follow the written chain, without caps; N, C: chain ends. Residues, ends and D or L forms follow the SMILES beside them. *: point of attachment. C20 diacid = O=C(O)CCCCCCCCCCCCCCCCCCC(=O)*; γGlu = O=C(O)[C@H](CCC(=O)[*:2])N[*:1]

The assay in a line: Assay (I) efficacy testing on appetite (food intake), ad libitum fed rat model. In kind it is in vivo, Sprague Dawley (SD) rats. Summed up:
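Ad libitum fed SD rats (200-250 g) on a reversed light cycle, housed individually, received a single 0.01-3 mg/kg dose ip, po or sc just before lights-off. Individual food intake recorded hourly for 7 h, then at 24 h and sometimes 48 h, versus vehicle; Grubbs outliers excluded.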

`CC[C@H](C)[C@H](NC(=O)[C@@H]1CCCN1C(=O)CNC(=O)[C@H](Cc1ccccc1)NC(=O)[C@H](CC(N)=O)NC(=O)[C@H](CC(N)=O)NC(=O)[C@H](CO)NC(=O)[C@H](CO)NC(=O)[C@H](Cc1c[nH]cn1)NC(=O)[C@H](Cc1c[nH]cn1)NC(=O)[C@H](CC(C)C)NC(=O)[C@H](Cc1ccccc1)NC(=O)[C@H](CCC(=O)O)NC(=O)[C@H](C)NC(=O)[C@H](CC(C)C)NC(=O)[C@H](CCCNC(=N)N)NC(=O)[C@H](CCC(N)=O)NC(=O)[C@@H](NC(=O)[C@H](C)NC(=O)[C@@H]1CSSC[C@H](NC(=O)[C@H](CCC(=O)O)NC(=O)CC[C@H](NC(=O)CCCCCCCCCCCCCCCCCCC(=O)O)C(=O)O)C(=O)N[C@@H](CC(N)=O)C(=O)N[C@@H]([C@@H](C)O)C(=O)N[C@@H](C)C(=O)N[C@@H]([C@@H](C)O)C(=O)N1)[C@@H](C)O)C(=O)N[C@@H](CC(C)C)C(=O)N1CCC[C@H]1C(=O)N1CCC[C@H]1C(=O)N[C@H](C(=O)N[C@@H](CC(N)=O)C(=O)N[C@H](C(=O)NCC(=O)N[C@@H](CO)C(=O)N[C@@H](CC(N)=O)C(=O)N[C@H](C(=O)N[C@@H](Cc1ccc(O)cc1)C(N)=O)[C@@H](C)O)C(C)C)[C@@H](C)O` [compound 29] ({C20 diacid-γGlu}-ECNTATCATQRLAEFLHHSSNNFGPILPPTNVGSNTY-NH2; disulfide 2-7): the “Food intake reduction 0-24 h 3 nmol/kg (%)” value amounted to 15% and the “Food intake reduction 24-48 h 3 nmol/kg (%)” value is listed as 5%.
In the case of `CC[C@H](C)[C@H](NC(=O)[C@@H]1CCCN1C(=O)CNC(=O)[C@H](Cc1ccccc1)NC(=O)[C@H](CC(N)=O)NC(=O)[C@H](CC(N)=O)NC(=O)[C@H](CO)NC(=O)[C@H](CO)NC(=O)[C@H](Cc1c[nH]cn1)NC(=O)[C@H](CCCNC(=N)N)NC(=O)[C@H](CC(C)C)NC(=O)[C@H](Cc1ccccc1)NC(=O)[C@H](CCC(=O)O)NC(=O)[C@H](C)NC(=O)[C@H](CC(C)C)NC(=O)[C@H](CCCNC(=N)N)NC(=O)[C@H](CCC(N)=O)NC(=O)[C@@H](NC(=O)[C@H](C)NC(=O)[C@@H]1CSSC[C@H](NC(=O)[C@H](Cc2c[nH]cn2)NC(=O)[C@H](Cc2c[nH]cn2)NC(=O)[C@H](Cc2c[nH]cn2)NC(=O)CC[C@H](NC(=O)CCCCCCCCCCCCCCCCCCC(=O)O)C(=O)O)C(=O)N[C@@H](CC(N)=O)C(=O)N[C@@H]([C@@H](C)O)C(=O)N[C@@H](C)C(=O)N[C@@H]([C@@H](C)O)C(=O)N1)[C@@H](C)O)C(=O)N[C@@H](CC(C)C)C(=O)N1CCC[C@H]1C(=O)N1CCC[C@H]1C(=O)N[C@H](C(=O)N[C@@H](CC(N)=O)C(=O)N[C@H](C(=O)NCC(=O)N[C@@H](CO)C(=O)N[C@@H](CC(N)=O)C(=O)N[C@H](C(=O)N[C@@H](Cc1ccc(O)cc1)C(N)=O)[C@@H](C)O)C(C)C)[C@@H](C)O` [compound 12] ({C20 diacid-γGlu}-HHHCNTATCATQRLAEFLRHSSNNFGPILPPTNVGSNTY-NH2; disulfide 4-9), the “Food intake reduction 0-24 h 30 nmol/kg (%)” value is listed as 70% and the “Food intake reduction 24-48 h 30 nmol/kg (%)” value stood at 45%.
Take `CC[C@H](C)[C@H](NC(=O)[C@@H]1CCCN1C(=O)CNC(=O)[C@H](Cc1ccccc1)NC(=O)[C@H](CC(N)=O)NC(=O)[C@H](CC(N)=O)NC(=O)[C@H](CO)NC(=O)[C@H](CO)NC(=O)[C@H](Cc1c[nH]cn1)NC(=O)[C@H](Cc1c[nH]cn1)NC(=O)[C@H](CC(C)C)NC(=O)[C@H](Cc1ccccc1)NC(=O)[C@H](CCC(=O)O)NC(=O)[C@H](C)NC(=O)[C@H](CC(C)C)NC(=O)[C@H](CCCNC(=N)N)NC(=O)[C@H](CCC(N)=O)NC(=O)[C@@H](NC(=O)[C@H](C)NC(=O)[C@@H]1CSSC[C@H](NC(=O)[C@H](CCCCN)NC(=O)[C@H](CCC(=O)O)NC(=O)CC[C@H](NC(=O)CCCCCCCCCCCCCCCCCCC(=O)O)C(=O)O)C(=O)N[C@@H](CC(N)=O)C(=O)N[C@@H]([C@@H](C)O)C(=O)N[C@@H](C)C(=O)N[C@@H]([C@@H](C)O)C(=O)N1)[C@@H](C)O)C(=O)N[C@@H](CC(C)C)C(=O)N1CCC[C@H]1C(=O)N1CCC[C@H]1C(=O)N[C@H](C(=O)N[C@@H](CC(N)=O)C(=O)N[C@H](C(=O)NCC(=O)N[C@@H](CO)C(=O)N[C@@H](Cc1c[nH]cn1)C(=O)N[C@H](C(=O)N[C@@H](Cc1ccc(O)cc1)C(N)=O)[C@@H](C)O)C(C)C)[C@@H](C)O` [compound 56] ({C20 diacid-γGlu}-EKCNTATCATQRLAEFLHHSSNNFGPILPPTNVGSHTY-NH2; disulfide 3-8): the “Food intake reduction 0-24 h 3 nmol/kg (%)” value is given as 46% and the “Food intake reduction 24-48 h 3 nmol/kg (%)” value is 21%.
On to `CC[C@H](C)[C@H](NC(=O)[C@@H]1CCCN1C(=O)CNC(=O)[C@H](Cc1ccccc1)NC(=O)[C@H](CC(N)=O)NC(=O)[C@H](CC(N)=O)NC(=O)[C@H](CO)NC(=O)[C@H](CO)NC(=O)[C@H](Cc1c[nH]cn1)NC(=O)[C@H](Cc1c[nH]cn1)NC(=O)[C@H](CC(C)C)NC(=O)[C@H](Cc1ccccc1)NC(=O)[C@H](CCC(=O)O)NC(=O)[C@H](C)NC(=O)[C@H](CC(C)C)NC(=O)[C@H](CCCNC(=N)N)NC(=O)[C@H](CCC(N)=O)NC(=O)[C@@H](NC(=O)[C@H](C)NC(=O)[C@@H]1CSSC[C@H](NC(=O)[C@H](CCCCN)NC(=O)[C@H](CCC(=O)O)NC(=O)CC[C@H](NC(=O)CCCCCCCCCCCCCCCCCCC(=O)O)C(=O)O)C(=O)N[C@@H](CC(N)=O)C(=O)N[C@@H]([C@@H](C)O)C(=O)N[C@@H](C)C(=O)N[C@@H]([C@@H](C)O)C(=O)N1)[C@@H](C)O)C(=O)N[C@@H](CC(C)C)C(=O)N1CCC[C@H]1C(=O)N1CCC[C@H]1C(=O)N[C@H](C(=O)N[C@@H](CC(N)=O)C(=O)N[C@H](C(=O)NCC(=O)N[C@@H](CO)C(=O)N[C@@H](CC(N)=O)C(=O)N[C@H](C(=O)N[C@@H](Cc1ccc(O)cc1)C(N)=O)[C@@H](C)O)C(C)C)[C@@H](C)O` [compound 26] ({C20 diacid-γGlu}-EKCNTATCATQRLAEFLHHSSNNFGPILPPTNVGSNTY-NH2; disulfide 3-8), for which the “Food intake reduction 0-24 h 3 nmol/kg (%)” value is 46% and the “Food intake reduction 24-48 h 3 nmol/kg (%)” value worked out at 39%.
`CC[C@H](C)[C@H](NC(=O)[C@H](CCC(=O)O)NC(=O)CNC(=O)[C@H](Cc1ccccc1)NC(=O)[C@H](CC(N)=O)NC(=O)[C@H](CC(N)=O)NC(=O)[C@H](CO)NC(=O)[C@H](CO)NC(=O)[C@H](CCCNC(=N)N)NC(=O)[C@H](Cc1c[nH]cn1)NC(=O)[C@H](CC(C)C)NC(=O)[C@H](Cc1ccccc1)NC(=O)[C@H](CCC(=O)O)NC(=O)[C@H](C)NC(=O)[C@H](CC(C)C)NC(=O)[C@H](CCCNC(=N)N)NC(=O)[C@H](CCC(N)=O)NC(=O)[C@@H](NC(=O)[C@H](C)NC(=O)[C@@H]1CSSC[C@H](NC(=O)[C@H](Cc2c[nH]cn2)NC(=O)CC[C@H](NC(=O)CCCCCCCCCCCCCCCCCCC(=O)O)C(=O)O)C(=O)N[C@@H](CC(N)=O)C(=O)N[C@@H]([C@@H](C)O)C(=O)N[C@@H](C)C(=O)N[C@@H]([C@@H](C)O)C(=O)N1)[C@@H](C)O)C(=O)N[C@@H](CC(C)C)C(=O)N[C@@H](CO)C(=O)N[C@@H](CCCNC(=N)N)C(=O)N[C@H](C(=O)N[C@@H](CC(N)=O)C(=O)N[C@H](C(=O)NCC(=O)N[C@@H](CO)C(=O)N[C@@H](CC(N)=O)C(=O)N[C@H](C(=O)N[C@@H](Cc1ccc(O)cc1)C(N)=O)[C@@H](C)O)C(C)C)[C@@H](C)O` [compound 7] ({C20 diacid-γGlu}-HCNTATCATQRLAEFLHRSSNNFGEILSRTNVGSNTY-NH2; disulfide 2-7 (inferred); C-terminus assumed): the “Food intake reduction 0-24 h 3 nmol/kg (%)” value is reported as 53% and the “Food intake reduction 24-48 h 3 nmol/kg (%)” value is listed as 46%.
Regarding `CC[C@H](C)[C@H](NC(=O)[C@@H]1CCCN1C(=O)CNC(=O)[C@H](Cc1ccccc1)NC(=O)[C@H](CC(N)=O)NC(=O)[C@H](CC(N)=O)NC(=O)[C@H](CO)NC(=O)[C@H](CO)NC(=O)[C@H](CCCNC(=N)N)NC(=O)[C@H](Cc1c[nH]cn1)NC(=O)[C@H](CC(C)C)NC(=O)[C@H](Cc1ccccc1)NC(=O)[C@H](CCC(=O)O)NC(=O)[C@H](C)NC(=O)[C@H](CC(C)C)NC(=O)[C@H](CCCNC(=N)N)NC(=O)[C@H](CCC(N)=O)NC(=O)[C@@H](NC(=O)[C@H](C)NC(=O)[C@@H]1CSSC[C@H](NC(=O)[C@H](Cc2c[nH]cn2)NC(=O)CC[C@H](NC(=O)CCCCCCCCCCCCCCCCCCC(=O)O)C(=O)O)C(=O)N[C@@H](CC(N)=O)C(=O)N[C@@H]([C@@H](C)O)C(=O)N[C@@H](C)C(=O)N[C@@H]([C@@H](C)O)C(=O)N1)[C@@H](C)O)C(=O)N[C@@H](CC(C)C)C(=O)N1CCC[C@H]1C(=O)N1CCC[C@H]1C(=O)N[C@H](C(=O)N[C@@H](CC(N)=O)C(=O)N[C@H](C(=O)NCC(=O)N[C@@H](CO)C(=O)N[C@@H](CC(N)=O)C(=O)N[C@H](C(=O)N[C@@H](Cc1ccc(O)cc1)C(N)=O)[C@@H](C)O)C(C)C)[C@@H](C)O` [compound 1] ({C20 diacid-γGlu}-HCNTATCATQRLAEFLHRSSNNFGPILPPTNVGSNTY-NH2; disulfide 2-7), the “Food intake reduction 0-24 h 3 nmol/kg (%)” value was determined as 50%, the “Food intake reduction 24-48 h 3 nmol/kg (%)” value is 45%, the “Food intake reduction 0-24 h 30 nmol/kg (%)” value is reported as 93% and the “Food intake reduction 24-48 h 30 nmol/kg (%)” value came out at 92%.
